ChEMBL document CHEMBL1201862, “PubChem BioAssay data set” (2004)
Calls of active or inactive are those of the source.

Legend:
[1] = biological target: Peroxisome proliferator-activated receptor gamma/Nuclear receptor corepressor 2 (Homo sapiens, UniProt P37231+Q9Y618); type: functional
[2] = alpha-synuclein stem-loop luciferase translation blockers – H4 neuroglioma cells, luminescence, confirmation (AID 1988); type: functional, cell-based
[3] = biological target: T1, RNA-binding protein pos-1 (Caenorhabditis elegans, UniProt G5EF15); assay: disruptors of C. elegans POS-1 RNA interaction – biochemical, fluorescence polarization, dose response (AID 1964);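 note: purified POS-1 fused to maltose binding protein made in E. coli; potency of compounds blocking POS-1 binding to fluorescent RNA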
T1 sequence (G5EF15 whole entry): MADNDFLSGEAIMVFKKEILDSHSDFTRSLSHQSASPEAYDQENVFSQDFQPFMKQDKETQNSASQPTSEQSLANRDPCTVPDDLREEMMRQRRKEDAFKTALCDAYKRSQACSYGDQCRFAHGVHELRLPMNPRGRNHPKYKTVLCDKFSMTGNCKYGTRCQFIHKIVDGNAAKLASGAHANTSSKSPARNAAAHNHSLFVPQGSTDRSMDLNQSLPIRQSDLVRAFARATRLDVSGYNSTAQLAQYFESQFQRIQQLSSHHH

[4] = biological target: T2, Caspase-6 (Homo sapiens, UniProt P55212); assay: inhibition of CASP6 peptide cleavage – biochemical, VEID-R110 fluorescence, cherry-pick, dose response (AID 720632)
T2 sequence (P55212 whole entry): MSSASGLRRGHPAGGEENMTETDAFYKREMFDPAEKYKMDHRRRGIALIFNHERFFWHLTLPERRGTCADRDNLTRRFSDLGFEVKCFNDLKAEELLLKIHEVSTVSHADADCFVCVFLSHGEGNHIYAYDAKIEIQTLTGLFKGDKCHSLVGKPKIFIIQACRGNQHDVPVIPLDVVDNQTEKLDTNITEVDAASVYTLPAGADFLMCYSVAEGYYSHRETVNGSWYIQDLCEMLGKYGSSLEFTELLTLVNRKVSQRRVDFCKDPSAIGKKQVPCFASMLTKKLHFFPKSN

[5] = biological target: T3, Mannose-6-phosphate isomerase (Homo sapiens, UniProt P34949); assay: MPI inhibition at elevated mannose 6-phosphate – biochemical, fluorescence intensity, high mannose 6-phosphate, primary screen (AID 1220)
T3 sequence (P34949 whole entry): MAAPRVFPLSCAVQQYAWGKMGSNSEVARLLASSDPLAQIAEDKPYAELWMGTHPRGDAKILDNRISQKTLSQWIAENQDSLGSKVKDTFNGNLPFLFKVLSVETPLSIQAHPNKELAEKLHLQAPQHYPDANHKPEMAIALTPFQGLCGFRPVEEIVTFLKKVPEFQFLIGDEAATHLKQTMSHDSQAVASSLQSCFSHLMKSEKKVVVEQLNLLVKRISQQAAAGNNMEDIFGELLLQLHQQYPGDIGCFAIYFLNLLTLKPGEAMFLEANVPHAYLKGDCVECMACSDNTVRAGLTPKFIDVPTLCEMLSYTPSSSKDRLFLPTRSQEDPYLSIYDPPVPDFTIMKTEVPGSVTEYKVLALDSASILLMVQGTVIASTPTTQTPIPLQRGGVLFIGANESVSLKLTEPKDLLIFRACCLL

[6] = biological target: T4, Sentrin-specific protease 7 (Homo sapiens, UniProt Q9BQF6); assay: inhibition of human SENP7 cleavage activity – biochemical, luminescence, SAR follow-up (AID 504497); type: functional
T4 sequence (Q9BQF6 whole entry): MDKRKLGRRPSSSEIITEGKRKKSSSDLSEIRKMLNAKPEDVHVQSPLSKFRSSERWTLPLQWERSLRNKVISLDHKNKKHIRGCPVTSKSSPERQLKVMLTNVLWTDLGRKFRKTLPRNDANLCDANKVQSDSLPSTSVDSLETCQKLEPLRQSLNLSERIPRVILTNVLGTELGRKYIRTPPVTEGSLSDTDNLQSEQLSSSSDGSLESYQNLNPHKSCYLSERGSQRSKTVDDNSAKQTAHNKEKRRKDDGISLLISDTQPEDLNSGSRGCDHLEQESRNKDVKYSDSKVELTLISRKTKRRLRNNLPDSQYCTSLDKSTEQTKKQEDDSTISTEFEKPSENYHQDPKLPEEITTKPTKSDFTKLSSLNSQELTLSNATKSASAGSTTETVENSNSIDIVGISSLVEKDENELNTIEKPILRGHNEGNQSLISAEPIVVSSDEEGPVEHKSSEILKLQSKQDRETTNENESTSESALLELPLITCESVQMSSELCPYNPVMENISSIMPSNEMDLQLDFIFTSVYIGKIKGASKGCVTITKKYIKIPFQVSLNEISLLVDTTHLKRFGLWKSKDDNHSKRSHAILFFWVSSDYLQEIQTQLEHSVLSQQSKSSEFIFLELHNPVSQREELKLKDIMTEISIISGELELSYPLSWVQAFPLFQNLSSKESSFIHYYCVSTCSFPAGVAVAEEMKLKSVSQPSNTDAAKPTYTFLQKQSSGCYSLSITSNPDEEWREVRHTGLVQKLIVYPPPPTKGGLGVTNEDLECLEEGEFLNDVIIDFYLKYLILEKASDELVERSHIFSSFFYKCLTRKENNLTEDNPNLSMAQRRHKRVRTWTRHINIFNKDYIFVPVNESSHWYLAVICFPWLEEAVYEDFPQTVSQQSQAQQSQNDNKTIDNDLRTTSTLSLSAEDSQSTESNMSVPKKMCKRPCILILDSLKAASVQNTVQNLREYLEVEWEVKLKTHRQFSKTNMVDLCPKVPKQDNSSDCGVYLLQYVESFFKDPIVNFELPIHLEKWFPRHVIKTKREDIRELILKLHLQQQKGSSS

[7] = cells; type: functional, cell-based
[8] = reduction of Shn3 3'UTR-driven luciferase in osteoblasts – cell-based, Clone20 osteoblasts, firefly luciferase, cherry-picked, dose response (AID 624132); type: functional;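 note: firefly luciferase luminescence from reporter carrying the Shn3 3'UTR in osteoblasts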
[9] = NIH-3T3 fibroblast cytotoxicity, dose response, cytotoxicity control, cell-based, fluorescence, Alamar Blue, secondary assay (AID 2327); type: functional;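 note: NIH-3T3 mouse fibroblasts cultured with fluconazole at 8 µg/mL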
[10] = biological target: Serine/threonine-protein phosphatase (Candida dubliniensis (strain CD36 / CBS 7987 / NCPF 3949 / NRRLY-17841) (Yeast), UniProt B9W6M3); assay: blockers of CaCl2-induced CDRE-lacZ signaling – S. cerevisiae, luminescence, secondary, dose response (AID 2388); type: functional, cell-based;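 note: yeast reporter cells carrying a calcineurin-responsive lacZ construct stimulated with calcium chloride; luminescent beta-galactosidase reporter signal in whole cells rather than isolated phosphatase activity; potency for inhibition where a drop in reporter signal means calcineurin blockade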
Serine/threonine-protein phosphatase, sequence (B9W6M3 whole entry): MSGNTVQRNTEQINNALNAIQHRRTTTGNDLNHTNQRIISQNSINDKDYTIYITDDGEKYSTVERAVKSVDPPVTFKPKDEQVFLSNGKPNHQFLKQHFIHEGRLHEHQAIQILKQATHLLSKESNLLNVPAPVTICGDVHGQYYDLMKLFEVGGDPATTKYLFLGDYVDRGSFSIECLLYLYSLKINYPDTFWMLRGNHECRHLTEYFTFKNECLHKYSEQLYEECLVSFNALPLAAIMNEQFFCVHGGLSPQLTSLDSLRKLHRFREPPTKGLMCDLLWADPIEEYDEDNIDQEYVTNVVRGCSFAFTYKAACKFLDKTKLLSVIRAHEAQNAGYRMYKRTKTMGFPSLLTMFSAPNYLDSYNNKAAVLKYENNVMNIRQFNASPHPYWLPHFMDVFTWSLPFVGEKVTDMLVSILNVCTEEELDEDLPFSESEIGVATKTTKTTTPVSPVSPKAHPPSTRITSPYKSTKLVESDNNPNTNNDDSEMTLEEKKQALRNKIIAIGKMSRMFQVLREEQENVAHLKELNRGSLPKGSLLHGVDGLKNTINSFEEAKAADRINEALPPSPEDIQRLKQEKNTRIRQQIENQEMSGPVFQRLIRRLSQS

[11] = loss of viability in HepG2 cells – cell-based, CellTiter-Glo, cherry-picked, cytotoxicity control for Shn3 inhibitor project, dose response (AID 624134); type: functional
[12] = system: Jurkat; assay: SAR Analysis of small molecule inhibitors of T-cell specific antigen receptor-induced NF-kB activation in a Jurkat cell line using a luminescence assay - Set 2. [Related pubchem assays (depositor defined):AID435003, AID435012, AID465]; type: functional, cell-based; conditions: Homo sapiens
[13] = HepG2 cell cytotoxicity, dose response, cytotoxicity control for non-replicating M. tuberculosis project (AID 489018); type: functional; conditions: Mycobacterium tuberculosis
[14] = system: BJ; assay: growth inhibition of engineered Ras-driven BJ cells – cell-based, alamar blue fluorescence, cherrypicked samples, dose response (AID 2631); type: functional; conditions: Homo sapiens;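 note: confirmatory dose-response assay in RAS-dependent BJ fibroblasts engineered with TERT, LT and ST, with cytotoxicity read by fluorescence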
[15] = cells; type: functional
[16] = DRD fibroblast viability loss – cell-based, non-viral oncogenic, luminescence, dose response (AID 1934); type: functional; conditions: Homo sapiens

Peroxisome proliferator-activated receptor gamma/Nuclear receptor corepressor 2, sequence (P37231 whole entry): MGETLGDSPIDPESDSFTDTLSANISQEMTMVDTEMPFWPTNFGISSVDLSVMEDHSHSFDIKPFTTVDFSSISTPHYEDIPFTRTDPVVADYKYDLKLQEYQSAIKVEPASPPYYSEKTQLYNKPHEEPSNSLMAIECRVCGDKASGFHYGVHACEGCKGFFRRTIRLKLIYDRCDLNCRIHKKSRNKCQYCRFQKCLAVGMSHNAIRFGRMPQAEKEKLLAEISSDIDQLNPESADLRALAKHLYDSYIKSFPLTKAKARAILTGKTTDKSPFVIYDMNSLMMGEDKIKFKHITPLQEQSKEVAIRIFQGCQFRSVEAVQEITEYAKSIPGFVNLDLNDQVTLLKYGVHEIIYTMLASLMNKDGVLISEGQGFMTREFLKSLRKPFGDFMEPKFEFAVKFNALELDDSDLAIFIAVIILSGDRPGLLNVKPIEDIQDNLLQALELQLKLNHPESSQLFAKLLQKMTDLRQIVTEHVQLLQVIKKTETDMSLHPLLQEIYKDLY
Peroxisome proliferator-activated receptor gamma/Nuclear receptor corepressor 2, sequence (Q9Y618 whole entry): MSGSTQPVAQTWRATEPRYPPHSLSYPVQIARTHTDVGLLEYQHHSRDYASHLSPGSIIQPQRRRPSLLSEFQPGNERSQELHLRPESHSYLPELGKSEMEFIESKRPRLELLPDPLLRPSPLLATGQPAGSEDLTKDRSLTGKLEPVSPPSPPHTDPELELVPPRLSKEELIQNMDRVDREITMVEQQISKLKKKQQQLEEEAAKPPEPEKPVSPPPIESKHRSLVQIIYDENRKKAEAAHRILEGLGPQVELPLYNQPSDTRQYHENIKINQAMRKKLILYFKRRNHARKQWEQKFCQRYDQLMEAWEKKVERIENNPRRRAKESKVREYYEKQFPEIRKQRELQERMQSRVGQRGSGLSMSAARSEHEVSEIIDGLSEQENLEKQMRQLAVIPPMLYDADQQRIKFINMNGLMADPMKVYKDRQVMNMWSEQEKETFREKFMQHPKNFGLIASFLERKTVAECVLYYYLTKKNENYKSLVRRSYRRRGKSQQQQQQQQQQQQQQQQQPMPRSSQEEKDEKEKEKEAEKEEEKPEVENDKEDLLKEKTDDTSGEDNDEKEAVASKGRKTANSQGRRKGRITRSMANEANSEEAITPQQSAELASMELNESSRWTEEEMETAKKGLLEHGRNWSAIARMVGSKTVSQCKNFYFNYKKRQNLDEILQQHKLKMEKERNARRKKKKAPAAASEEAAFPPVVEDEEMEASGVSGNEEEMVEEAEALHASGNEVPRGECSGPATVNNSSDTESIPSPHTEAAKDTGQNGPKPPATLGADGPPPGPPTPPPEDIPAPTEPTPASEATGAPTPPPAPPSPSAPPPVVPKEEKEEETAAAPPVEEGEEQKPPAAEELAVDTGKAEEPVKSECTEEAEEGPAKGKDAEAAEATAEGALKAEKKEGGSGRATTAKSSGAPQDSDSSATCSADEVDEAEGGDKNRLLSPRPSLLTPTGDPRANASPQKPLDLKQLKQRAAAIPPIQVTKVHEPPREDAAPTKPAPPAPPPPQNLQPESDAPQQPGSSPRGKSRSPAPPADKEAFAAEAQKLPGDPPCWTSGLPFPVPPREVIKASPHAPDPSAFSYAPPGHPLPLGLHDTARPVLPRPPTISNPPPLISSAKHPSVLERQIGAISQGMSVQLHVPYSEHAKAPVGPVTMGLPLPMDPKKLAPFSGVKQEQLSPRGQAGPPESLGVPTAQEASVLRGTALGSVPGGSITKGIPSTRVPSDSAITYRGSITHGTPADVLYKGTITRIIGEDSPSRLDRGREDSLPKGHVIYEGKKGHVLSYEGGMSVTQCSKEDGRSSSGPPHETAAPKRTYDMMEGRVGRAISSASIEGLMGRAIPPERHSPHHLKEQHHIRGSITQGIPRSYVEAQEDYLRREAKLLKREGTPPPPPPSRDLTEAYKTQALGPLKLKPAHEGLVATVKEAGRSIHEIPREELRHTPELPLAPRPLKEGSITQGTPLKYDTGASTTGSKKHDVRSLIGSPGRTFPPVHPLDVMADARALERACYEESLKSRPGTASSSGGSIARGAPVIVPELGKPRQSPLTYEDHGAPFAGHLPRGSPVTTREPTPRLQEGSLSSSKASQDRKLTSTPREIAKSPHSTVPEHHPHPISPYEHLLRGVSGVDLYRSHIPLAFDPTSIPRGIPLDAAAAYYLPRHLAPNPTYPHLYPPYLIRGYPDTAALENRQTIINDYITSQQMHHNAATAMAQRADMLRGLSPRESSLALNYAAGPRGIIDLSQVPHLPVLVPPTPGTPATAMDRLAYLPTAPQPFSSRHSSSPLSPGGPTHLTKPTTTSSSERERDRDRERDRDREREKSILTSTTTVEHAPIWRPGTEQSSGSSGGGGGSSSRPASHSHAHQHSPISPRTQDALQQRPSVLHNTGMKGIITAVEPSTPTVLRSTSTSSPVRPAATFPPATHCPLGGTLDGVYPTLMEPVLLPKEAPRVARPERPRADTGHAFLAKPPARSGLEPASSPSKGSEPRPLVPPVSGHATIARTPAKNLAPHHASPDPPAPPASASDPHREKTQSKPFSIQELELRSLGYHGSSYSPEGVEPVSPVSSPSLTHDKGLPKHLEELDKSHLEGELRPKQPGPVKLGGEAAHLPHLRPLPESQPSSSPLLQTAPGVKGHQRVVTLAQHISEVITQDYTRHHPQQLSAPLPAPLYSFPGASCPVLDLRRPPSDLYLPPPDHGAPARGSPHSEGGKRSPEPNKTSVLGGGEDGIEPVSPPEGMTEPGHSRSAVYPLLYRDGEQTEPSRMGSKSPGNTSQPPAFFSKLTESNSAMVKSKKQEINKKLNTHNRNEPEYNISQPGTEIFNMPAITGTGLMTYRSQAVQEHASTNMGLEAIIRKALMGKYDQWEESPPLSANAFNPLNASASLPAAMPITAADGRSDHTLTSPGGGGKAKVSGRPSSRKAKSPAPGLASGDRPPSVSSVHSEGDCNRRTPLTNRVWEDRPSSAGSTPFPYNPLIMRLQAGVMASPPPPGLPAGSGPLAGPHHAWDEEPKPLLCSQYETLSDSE

Cn1nc(-c2ccc(Cl)cc2)nc2c(=O)n(C)c(=O)nc1-2
IC50 [1]: > 4.43 µM (active) | EC50 [2]: 4.07 µM (active) | EC50 [3]: 17.6 µM (active)

NS(=O)(=O)c1ccc(NC(=O)COC(=O)c2ccc([N+](=O)[O-])s2)cc1
AC50 [4]: 3.33 µM (active)

CCCCNc1cc(NC(C)=O)cc2cc(OC)c(OC)cc12
IC50 [5]: > 50 µM (not active) | IC50 [6]: > 99 µM (inactive)

COc1ccc(C(NC(=O)C(C)C)c2ccc3cccnc3c2O)cc1 (stereo unspecified)
EC50 [7]: > 350 µM (not active) | AC50 [8]: 1.35 µM (active) | EC50 [9]: 40.1 µM (active) | EC50 [10]: > 180 µM (inactive) | AC50 [11]: 1.27 µM (active) | IC50 [12]: 2.38 µM (active)

O=C(Cc1ccc([N+](=O)[O-])cc1)N/N=C/c1ccc([N+](=O)[O-])o1
CC50 [13]: 7.53 µM (active) | EC50 [14]: 7.85 µM (active) | IC50 [15]: 13.2 µM (active) | EC50 [16]: 38.3 µM (active)
